Source: patent publication US12157730B2, “Heteroaryl derivative, method for producing same, and pharmaceutical composition comprising same as effective component” (VORONOI INC., priority 2019, dated 2024)

Target: T1, Ba/F3 cell EGFR Exon20 ins NPH (Homo sapiens, UniProt P00533, INS773NPH)
T1 construct: expressed in transfected cells; host or cells: Ba/F3
Experiment: Ba/F3 cell proliferation suppression, EGFR Exon20 ins NPH
Type: cell-based
Conditions: GI50 class; Ba/F3 cell line with NPH inserted at Exon20 of EGFR; 72 hours
Summary of the method: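 Growth suppression determined as GI50 following 72 h exposure across 12 concentrations up to 50 um, with viability by luminescent ATP assay (CellTiter-Glo).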

Row | Structure (SMILES) | Ba/F3 (NPH) Activity
1 | C=CC(=O)Nc1cc(Nc2cc(N3OCC[C@@H]3c3ccc(F)c(Cl)c3)ncn2)c(OC)cc1N1CCC(N2CCN(C3CCCC3)CC2)CC1 [Example 99, N-(5-((6-((R)-3-(3-chloro-4-fluorophenyl)isoxazolidine-2-yl)pyrimidine-4-yl)amino)-2-(4-(4-cyclopentylpiperazine-1-yl)piperidine-1-yl)-4-methoxyphenyl) acrylamide] | A (GI50 < 50 nM)
2 | C=CC(=O)Nc1cc(Nc2cc(N3OCC[C@@H]3c3cccc(Cl)c3C)ncn2)c(OC)cc1N1CCC(N2CC3CCC(C2)N3C2CC2)CC1 [Example 154, N-(5-((6-((R)-3-(3-chloro-2-methylphenyl)isoxazolidine-2-yl)pyrimidine-4-yl)amino)-2-(4-(8-cyclopropyl-3,8-diazabicyclo [3.2.1]octan-3-yl)piperidine-1-yl)-4-methoxyphenyl) acrylamide] | A (GI50 < 50 nM)
3 | C=CC(=O)Nc1cc(Nc2cc(N3OCC[C@@H]3c3ccc(Cl)c(F)c3)ncn2)c(OC)cc1N1CCC(N2C[C@@H](C)O[C@@H](C)C2)CC1 [compound 709, N-(5-((6-((R)-3-(4-chloro-3-fluorophenyl)isoxazolidine-2-yl)pyrimidine-4-yl)amino)-2-(4-((2S,6R)-2,6-dimethylmorpholino)piperidine-1-yl)-4-methoxyphenyl) acrylamide] | A (GI50 < 50 nM)
4 | C=CC(=O)Nc1cc(Nc2cc(N3OCC[C@@H]3c3cccc(C)c3F)ncn2)c(OC)cc1N1CCC(N2C[C@@H](C)N(C3CC3)C[C@H]2C)CC1 [Example 124, N-(2-(4-((2R,5R)-4-cyclopropyl-2,5-dimethylpiperazine-1-yl)piperidine-1-yl)-5-((6-((R)-3-(2-fluoro-3-methylphenyl)isoxazolidine-2-yl)pyrimidine-4-yl)amino)-4-methoxyphenyl) acrylamide] | A (GI50 < 50 nM)
5 | C=CC(=O)Nc1cc(Nc2cc(N3OCC[C@@H]3c3ccc(F)cc3F)ncn2)c(OC)cc1N1CCC(N2C[C@H]3C[C@@H]2CO3)CC1 [compound 423, N-(2-(4-((1R,4R)-2-oxa-5-azabicyclo [2.2.1]heptane-5-yl)piperidine-1-yl)-5-((6-((R)-3-(2,4-difluorophenyl)isoxazolidine-2-yl)pyrimidine-4-yl)amino)-4-methoxyphenyl) acrylamide] | A (GI50 < 50 nM)
6 | C=CC(=O)Nc1cc(Nc2cc(N3OCC[C@@H]3c3cccc(F)c3)ncn2)c(OC)cc1N1CCC(N2CCN(C(C)=O)CC2)CC1 [compound 741, N-(2-(4-(4-acetylpiperazine-1-yl)piperidine-1-yl)-5-((6-((R)-3-(3-fluorophenyl)isoxazolidine-2-yl)pyrimidine-4-yl)amino)-4-methoxyphenyl) acrylamide] | A (GI50 < 50 nM)
7 | C=CC(=O)Nc1cc(Nc2cc(N3OCC[C@@H]3c3cccc(F)c3F)ncn2)c(OC)cc1N1CCC(N2CCN(CC)CC2)CC1 [compound 922] | A (GI50 < 50 nM)
8 | C=CC(=O)Nc1cc(Nc2cc(N3OCC[C@H]3c3c(F)ccc(F)c3F)ncn2)c(OC)cc1N1CCC(N2CCN(C3CC3)CC2)CC1 [compound 937, N-(2-(4-(4-cyclopropylpiperazine-1-yl)piperidine-1-yl)-4-methoxy-5-((6-((S)-3-(2,3,6-trifluorophenyl)isoxazolidine-2-yl)pyrimidine-4-yl)amino)phenyl)acrylamide] | B (50 nM ≤ GI50 < 500 nM)
9 | C=CC(=O)Nc1cc(Nc2cc(N3OCC[C@@H]3c3cccc(F)c3Cl)ncn2)c(OC)cc1N1CCC(N2CCN(C3CC3)CC2)CC1 [Example 164, N-(5-((6-((R)-3-(2-chloro-3-fluorophenyl)isoxazolidine-2-yl)pyrimidine-4-yl)amino)-2-(4-(4-cyclopropylpiperazine-1-yl)piperidine-1-yl)-4-methoxyphenyl) acrylamide] | A (GI50 < 50 nM)
10 | C=CC(=O)Nc1cc(Nc2cc(N3OCC[C@@H]3Cc3ccccc3)ncn2)c(OC)cc1N1CCC(N2CCN(C3CC3)CC2)CC1 [compound 955, N-(5-((6-((S)-3-benzylisoxazolidine-2-yl)pyrimidine-4-yl)amino)-2-(4-(4-cyclopropylpiperazine-1-yl)piperidine-1-yl)-4-methoxyphenyl) acrylamide] | A (GI50 < 50 nM)
11 | C=CC(=O)Nc1cc(Nc2cc(N3OCC[C@@H]3c3ccc(Cl)cc3)ncn2)c(OC)cc1N1CCC(N2CCC(N(C)C)CC2)CC1 [compound 808, N-(5-((6-((R)-3-(4-chlorophenyl)isoxazolidine-2-yl)pyrimidine-4-yl)amino)-2-(4-(dimethylamino)-[1,4'-bipiperidine]-1'-yl)-4-methoxyphenyl) acrylamide] | B (50 nM ≤ GI50 < 500 nM)
12 | C=CC(=O)Nc1cc(Nc2cc(N3OCC[C@@H]3c3cccc(Cl)c3Cl)ncn2)c(OC)cc1N1CCC(N2CCN(C(C)C)CC2)CC1 [compound 609, N-(5-((6-((R)-3-(2,3-dichlorophenyl)isoxazolidine-2-yl)pyrimidine-4-yl)amino)-2-(4-(4-isopropylpiperazine-1-yl)piperidine-1-yl)-4-methoxyphenyl) acrylamide] | A (GI50 < 50 nM)
13 | C=CC(=O)Nc1cc(Nc2cc(N3OCC[C@@H]3c3ccc(Cl)c(F)c3)ncn2)c(OC)cc1N1CCC(N2C[C@H]3C[C@@H]2CO3)CC1 [Example 256, N-(2-(4-((1R,4R)-2-oxa-5-azabicyclo[2.2.1]heptane-5-yl)piperidine-1-yl)-5-((6-((R)-3-(4-chloro-3-fluorophenyl)isoxazolidine-2-yl)pyrimidine-4-yl)amino)-4-methoxyphenyl) acrylamide] | A (GI50 < 50 nM)
14 | C=CC(=O)Nc1cc(Nc2cc(N3OCC[C@@H]3c3cccc(F)c3)ncn2)c(OC)cc1N1CCC(N2CCN(CC)CC2)CC1 [Example 248, N-(2-(4-(4-ethylpiperazine-1-yl)piperidine-1-yl)-5-((6-((R)-3-(3-fluorophenyl)isoxazolidine-2-yl)pyrimidine-4-yl)amino)-4-methoxyphenyl) acrylamide] | A (GI50 < 50 nM)
15 | C=CC(=O)Nc1cc(Nc2cc(N3OCC[C@@H]3c3ccc(F)c(Cl)c3)ncn2)c(OC)cc1N1CCN(CC)CC1 [compound 723, N-(5-((6-((R)-3-(3-chloro-4-fluorophenyl)isoxazolidine-2-yl)pyrimidine-4-yl)amino)-2-(4-ethylpiperazine-1-yl)-4-methoxyphenyl) acrylamide] | A (GI50 < 50 nM)
16 | C=CC(=O)Nc1cc(Nc2cc(N3OCC[C@@H]3c3cccc(F)c3)ncn2)c(OC)cc1N1CCC(N2C[C@@H]3C[C@H]2CO3)CC1 [Example 244, N-(2-(4-((1S,4S)-2-oxa-5-azabicyclo[2.2.1]heptane-5-yl)piperidine-1-yl)-5-((6-((R)-3-(3-fluorophenyl)isoxazolidine-2-yl)pyrimidine-4-yl)amino)-4-methoxyphenyl) acrylamide] | A (GI50 < 50 nM)
17 | C=CC(=O)Nc1cc(Nc2cc(N3OCC[C@@H]3c3cccc(Cl)c3Cl)ncn2)c(OC)cc1N1CCN(C2CCN(C)CC2)CC1 [compound 562, N-(5-((6-((R)-3-(2,3-dichlorophenyl)isoxazolidine-2-yl)pyrimidine-4-yl)amino)-4-methoxy-2-(4-(1-methylpiperidine-4-yl)piperazine-1-yl)phenyl) acrylamide] | B (50 nM ≤ GI50 < 500 nM)
18 | C=CC(=O)Nc1cc(Nc2cc(N3OCC[C@@H]3c3cc(F)cc(F)c3)ncn2)c(OC)cc1N1CCC(N2C[C@@H](C)O[C@@H](C)C2)CC1 [Example 266, N-(5-((6-((R)-3-(3,5-difluorophenyl)isoxazolidine-2-yl)pyrimidine-4-yl)amino)-2-(4-((2S,6R)-2,6-dimethylmorpholino)piperidine-1-yl)-4-methoxyphenyl) acrylamide] | A (GI50 < 50 nM)
19 | C=CC(=O)Nc1cc(Nc2cc(N3OCC[C@@H]3c3ccc(Cl)c(Cl)c3)ncn2)c(OC)cc1N1CCC(N(C)C)CC1 [compound 677, N-(5-((6-((R)-3-(3,4-dichlorophenyl)isoxazolidine-2-yl)pyrimidine-4-yl)amino)-2-(4-(dimethylamino)piperidine-1-yl)-4-methoxyphenyl) acrylamide] | A (GI50 < 50 nM)
20 | C=CC(=O)Nc1cc(Nc2cc(N3OCC[C@@H]3c3ccc(Cl)cc3F)ncn2)c(OC)cc1N1CCC(N2CCC(N(C)C)CC2)CC1 [compound 410, N-(5-((6-((R)-3-(4-chloro-2-fluorophenyl)isoxazolidine-2-yl)pyrimidine-4-yl)amino)-2-(4-(dimethylamino)-[1,4'-bipiperidine]-1'-yl)-4-methoxyphenyl) acrylamide] | B (50 nM ≤ GI50 < 500 nM)
21 | C=CC(=O)Nc1cc(Nc2cc(N3OCC[C@@H]3Cc3cccc(Cl)c3Cl)ncn2)c(OC)cc1N1CCC(N2CCN(C3CC3)[C@@H](C)C2)CC1 [compound 981, N-(2-(4-((S)-4-cyclopropyl-3-methylpiperazine-1-yl)piperidine-1-yl)-5-((6-((S)-3-(2,3-dichlorobenzyl)isoxazolidine-2-yl)pyrimidine-4-yl)amino)-4-methoxyphenyl) acrylamide] | A (GI50 < 50 nM)
22 | C=CC(=O)Nc1cc(Nc2cc(N3OCC[C@@H]3c3ccc(F)c(F)c3F)ncn2)c(OC)cc1N1CCC(N2CCOCC2)CC1 [compound 621, N-(4-methoxy-2-(4-morpholinopiperidine-1-yl)-5-((6-((R)-3-(2,3,4-trifluorophenyl)isoxazolidine-2-yl)pyrimidine-4-yl)amino)phenyl)acrylamide] | A (GI50 < 50 nM)
23 | C=CC(=O)Nc1cc(Nc2cc(N3OCC[C@@H]3c3ccc(C)nc3)ncn2)c(OC)cc1N1CCC(N2CCC(N3CCOCC3)CC2)CC1 [Example 235, N-(4-methoxy-5-((6-((R)-3-(6-methylpyridine-3-yl)isoxazolidine-2-yl)pyrimidine-4-yl)amino)-2-(4-morpholino-[1,4'-bipiperidine]-1'-yl)phenyl)acrylamide] | B (50 nM ≤ GI50 < 500 nM)
